Assay results as given in ChEMBL document CHEMBL1128401, “Structure-activity relationships in the 8-amino-6,7,8,9-tetrahydro-3H-benz[e]indole ring system. 1. Effects of substituents in the aromatic system on serotonin and dopamine receptor subtypes” (J Med Chem, 1995).
Activity calls are given as the source filed them. The calls are words filed in the database; no cut-off is given here.

Columns and labels:
Rattus norvegicus [1] = test: The compound was tested in vivo for DOPA accumulation in limbic system against reserpine-pretreated rats; I= inactive at the highest dose tested (50).; assay type: functional, organism-based
Rattus norvegicus [2] = test: compound was tested in vivo for 5-HTP accumulation in hemispheres (cortex) against reserpine-pretreated rats; I= inactive at the highest dose tested (50).; assay type: functional, organism-based
[3] = target: 5-hydroxytryptamine receptor 1B (Homo sapiens, UniProt P28222); test: Binding affinity against 5-hydroxytryptamine 1D receptor beta expressed in CHO-K1 cells, using [3H]5-HT as the radioligand.; assay type: cell-based
5-hydroxytryptamine receptor 1B, sequence (P28222 whole entry): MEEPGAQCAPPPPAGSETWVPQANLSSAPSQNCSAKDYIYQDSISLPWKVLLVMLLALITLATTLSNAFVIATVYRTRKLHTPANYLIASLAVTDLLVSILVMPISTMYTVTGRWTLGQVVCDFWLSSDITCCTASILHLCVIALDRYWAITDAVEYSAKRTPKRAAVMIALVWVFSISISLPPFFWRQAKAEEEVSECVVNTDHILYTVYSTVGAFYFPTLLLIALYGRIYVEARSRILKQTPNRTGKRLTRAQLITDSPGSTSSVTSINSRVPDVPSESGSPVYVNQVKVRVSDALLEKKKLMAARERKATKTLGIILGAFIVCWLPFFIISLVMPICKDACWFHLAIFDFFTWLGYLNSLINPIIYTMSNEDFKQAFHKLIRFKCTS

[4] = target: T1, 5-hydroxytryptamine receptor 1A (Rattus norvegicus, UniProt P19327); test: Binding affinity against 5-hydroxytryptamine 1A receptor from CHO-K1 cells, using [3H]8-OH-DPAT as the radioligand.; assay type: cell-based
T1 sequence (P19327 whole entry): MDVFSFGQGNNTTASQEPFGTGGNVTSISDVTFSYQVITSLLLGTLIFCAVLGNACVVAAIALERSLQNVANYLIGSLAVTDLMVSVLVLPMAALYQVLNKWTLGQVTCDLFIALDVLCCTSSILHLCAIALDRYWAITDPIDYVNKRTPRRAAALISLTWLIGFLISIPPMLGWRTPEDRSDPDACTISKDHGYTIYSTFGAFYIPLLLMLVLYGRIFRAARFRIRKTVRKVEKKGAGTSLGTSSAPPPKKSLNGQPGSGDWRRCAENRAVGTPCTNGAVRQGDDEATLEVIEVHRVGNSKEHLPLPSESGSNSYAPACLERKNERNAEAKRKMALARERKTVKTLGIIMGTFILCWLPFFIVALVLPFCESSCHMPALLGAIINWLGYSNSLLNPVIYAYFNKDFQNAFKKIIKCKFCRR

Rattus norvegicus [5] = test: compound was tested in vivo for 5-HTP accumulation in limbic system against reserpine-pretreated rats; I= inactive at the highest dose tested (50).; assay type: functional, organism-based
D(2) dopamine receptor [6] = target: T2, D(2) dopamine receptor (Rattus norvegicus, UniProt P61169); test: Binding affinity against Dopamine receptor D2 expressed in CHO-K1 cells, using [3H]U-86170 as the radioligand.; assay type: cell-based
T2 sequence (P61169 whole entry): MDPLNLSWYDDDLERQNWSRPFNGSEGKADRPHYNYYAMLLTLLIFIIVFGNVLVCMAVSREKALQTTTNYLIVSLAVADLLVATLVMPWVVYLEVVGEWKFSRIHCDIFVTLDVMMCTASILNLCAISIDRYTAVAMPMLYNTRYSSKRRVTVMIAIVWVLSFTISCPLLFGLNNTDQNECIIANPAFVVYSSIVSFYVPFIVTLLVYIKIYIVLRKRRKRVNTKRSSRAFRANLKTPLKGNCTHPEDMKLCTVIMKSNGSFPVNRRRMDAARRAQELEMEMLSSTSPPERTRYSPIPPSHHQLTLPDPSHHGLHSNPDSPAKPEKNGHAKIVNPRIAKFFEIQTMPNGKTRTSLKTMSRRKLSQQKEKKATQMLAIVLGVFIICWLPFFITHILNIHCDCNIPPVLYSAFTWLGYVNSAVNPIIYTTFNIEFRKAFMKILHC

[7] = target: 5-hydroxytryptamine receptor 1D (Homo sapiens, UniProt P28221); test: Binding affinity against 5-hydroxytryptamine 1D receptor alpha expressed in CHO-K1 cells, using [3H]-5-HT as the radioligand.; assay type: cell-based; settings: read-out: Ki
5-hydroxytryptamine receptor 1D, sequence (P28221 whole entry): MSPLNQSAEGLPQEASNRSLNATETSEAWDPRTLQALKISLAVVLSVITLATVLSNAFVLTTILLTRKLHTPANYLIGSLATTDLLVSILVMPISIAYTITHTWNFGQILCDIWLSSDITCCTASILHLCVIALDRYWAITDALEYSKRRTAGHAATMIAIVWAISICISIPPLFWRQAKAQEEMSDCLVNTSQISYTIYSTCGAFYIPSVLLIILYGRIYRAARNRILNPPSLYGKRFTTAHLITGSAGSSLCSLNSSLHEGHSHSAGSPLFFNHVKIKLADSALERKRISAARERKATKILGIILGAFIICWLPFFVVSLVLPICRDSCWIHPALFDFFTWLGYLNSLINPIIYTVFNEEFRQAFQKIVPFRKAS

Rattus norvegicus [8] = test: compound was tested in vivo for DOPA accumulation in corpus striatum against reserpine-pretreated rats; P=significant partial reduction only at the highest dose tested (50).; assay type: functional, organism-based
Rattus norvegicus [9] = test: The compound was tested in vivo for DOPA accumulation in hemispheres (cortex) against reserpine-pretreated rats; I= inactive at the highest dose tested (50).; assay type: functional, organism-based
Rattus norvegicus [10] = test: compound was tested in vivo for 5-HTP accumulation in corpus striatum against reserpine-pretreated rats, activity expressed as ED50; I= inactive at the highest dose tested (50).; assay type: functional, organism-based
D(3) dopamine receptor [11] = target: T3, D(3) dopamine receptor (Rattus norvegicus, UniProt P19020); test: The compound was tested in vitro for binding affinity against cloned mammalian Dopamine receptor D3 expressed in CHO cells by, using [3H]spiperone as radioligand; assay type: cell-based
T3 sequence (P19020 whole entry): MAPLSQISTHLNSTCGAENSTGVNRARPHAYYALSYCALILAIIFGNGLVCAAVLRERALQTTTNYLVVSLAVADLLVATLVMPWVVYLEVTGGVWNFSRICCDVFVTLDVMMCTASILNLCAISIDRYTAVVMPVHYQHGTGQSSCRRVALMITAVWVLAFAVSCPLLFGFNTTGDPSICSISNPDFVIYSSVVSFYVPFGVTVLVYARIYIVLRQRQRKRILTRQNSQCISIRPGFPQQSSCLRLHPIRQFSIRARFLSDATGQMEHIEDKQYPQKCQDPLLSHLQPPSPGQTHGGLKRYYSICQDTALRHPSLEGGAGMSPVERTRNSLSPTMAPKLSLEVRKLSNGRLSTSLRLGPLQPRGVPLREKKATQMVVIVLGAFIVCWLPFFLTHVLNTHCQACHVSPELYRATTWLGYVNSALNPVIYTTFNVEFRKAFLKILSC

Rattus norvegicus [12] = test: In vivo for 5-HTP accumulation in corpus striatum against reserpine-pretreated rats.; assay type: functional
D(3) dopamine receptor [13] = target: T3, D(3) dopamine receptor; test: Binding affinity against Dopamine receptor D3 expressed in CHO-K1 cells, using [3H]spiperone as the radioligand.; assay type: cell-based
Rattus norvegicus [14] = test: In vivo for DOPA accumulation in limbic system against reserpine-pretreated rats.; assay type: functional
Rattus norvegicus [15] = test: The Compound was tested in vivo for DOPA accumulation in hemispheres (cortex) against reserpine-pretreated rats; I=inactive at the highest dose tested (3.1).; assay type: functional, organism-based
Rattus norvegicus [16] = test: In vivo for 5-HTP accumulation in limbic system against reserpine-pretreated rats.; assay type: functional
D(2) dopamine receptor [17] = target: T2, D(2) dopamine receptor; settings: cho-k1
D(3) dopamine receptor [18] = target: T3, D(3) dopamine receptor; test: Compound was tested for binding affinity against Dopamine receptor D3 expressed in CHO-K1 cells, using [3H]spiperone as the radioligand; I= inactive at the highest dose tested (12.5).; assay type: cell-based
[19] = Ratio of the 5-HTP accumulation decrease in limbic regions after oral and subcutaneous administration in rat.; assay type: functional, Limbic system
Rattus norvegicus [20] = test: Bioavailability in male Sprague-Dawley rats, after the po administration at a dose of 10.0(pmol/g/h); assay type: ADME, organism-based; settings: in vivo
Rattus norvegicus [21] = test: Bioavailability in male Sprague-Dawley rats, after the iv administration at a dose of 2.0(pmol/g/h); assay type: ADME, organism-based; settings: in vivo
[22] = tmax in hours at a po dose of 10.0(pmol/g/h).; assay type: ADME, organism-based; settings: in vivo, 10 pmol/g/h
[23] = Bioavailability in rat plasma following iv/po dose; assay type: ADME, organism-based
[24] = tmax in hours at a iv dose of 2.0(pmol/g/h).; assay type: ADME, organism-based; settings: in vivo
Rattus norvegicus [25] = test: The Compound was tested in vivo for DOPA accumulation in limbic system against reserpine-pretreated rats; P=significant partial reduction only at the highest dose tested (40).; assay type: functional, organism-based
Rattus norvegicus [26] = test: Compound was tested in vivo for DOPA accumulation in corpus striatum against reserpine-pretreated rats;P= significant partial reduction only at the highest dose tested (40).; assay type: functional, organism-based
D(3) dopamine receptor [27] = target: T3, D(3) dopamine receptor; test: Binding affinity against Dopamine receptor D3 from CHO-K1 cells, using [3H]spiperone as the radioligand.; assay type: cell-based; settings: read-out: Ki
D(2) dopamine receptor [28] = target: T2, D(2) dopamine receptor; test: Binding affinity against Dopamine receptor D2 from CHO-K1 cells, using [3H]U-86,170 as the radioligand.; assay type: cell-based
Rattus norvegicus [29] = test: Compound was tested in vivo for 5-HTP accumulation in hemispheres (cortex) against reserpine-pretreated rats; significant partial reduction only at the highest dose tested (40).; assay type: functional, organism-based
Rattus norvegicus [30] = test: The Compound was tested in vivo for DOPA accumulation in hemispheres (cortex) against reserpine-pretreated rats;I= inactive at the highest dose (40); assay type: functional, organism-based
Rattus norvegicus [31] = test: In vivo for 5-HTP accumulation in hemispheres (cortex) against reserpine-pretreated rats.; assay type: functional
Rattus norvegicus [32] = test: The Compound was tested in vivo for DOPA accumulation in hemispheres (cortex) against reserpine-pretreated rats;I= inactive at the highest dose (12.5); assay type: functional, organism-based
Rattus norvegicus [33] = test: In vivo for DOPA accumulation in corpus striatum against reserpine-pretreated rats.; assay type: functional

For `CCCN(CCC)C1CCc2ccc3[nH]cc(CC(F)(F)F)c3c2C1` (stereo not given), the ED50 (Rattus norvegicus [1]) was “inactive”, the ED50 (Rattus norvegicus [2]) was “inactive” and the Ki ([3]; read-out: Ki) was 409 nM. The Ki [4] was 18 nM, the ED50 (Rattus norvegicus [5]) was “inactive” and the Ki (D(2) dopamine receptor [6]) was 86 nM. The Ki [7] was 54 nM, the ED50 (Rattus norvegicus [8]) was “Weak activity” and the ED50 (Rattus norvegicus [9]) was “inactive”. The ED50 (Rattus norvegicus [10]) was “inactive” and the Ki (D(3) dopamine receptor [11]) was 134 nM.

In the case of `CCCN(CCC)[C@@H]1CCc2ccc3[nH]ccc3c2C1`, the ED50 (Rattus norvegicus [12]) is reported as 0.17 µmol/kg, the Ki ([3]; read-out: Ki) is reported as 139 nM and the Ki (D(2) dopamine receptor [6]) is reported as 7.4 nM. It also gave a Ki [7] of 16 nM, a Ki (D(3) dopamine receptor [13]) of 30 nM and an ED50 (Rattus norvegicus [14]) of 0.15 µmol/kg. The ED50 (Rattus norvegicus [15]) was “inactive” and the ED50 (Rattus norvegicus [16]) was 0.21 µmol/kg.

With `CCCN(CCC)[C@H]1CCc2ccc3[nH]cc(C(=O)C(N)=O)c3c2C1` the Ki ([3]; read-out: Ki) was 1100 nM, the Ki [4] was 49 nM and the Ki (D(2) dopamine receptor [17]) was “Not Active”. The Ki [7] was 440 nM and the Ki (D(3) dopamine receptor [18]) was “Not Active”.

Molecule `CN(C)[C@H]1CCc2ccc3[nH]ccc3c2C1` has an ED50 ratio [19] of 18, an AUC (Rattus norvegicus [20]) of 2224 pM ml-1 and an AUC (Rattus norvegicus [21]) of 607 pM ml-1. It also gave a Tmax [22] of 48 h, a bioavailability [23] of 72% and a Tmax [24] of 2 h.

For `CCCN(CCC)C1CCc2cc(F)c3[nH]cc(C(=O)CC)c3c2C1` (stereo not given), the ED50 (Rattus norvegicus [12]) was 3.94 µmol/kg, the Ki ([3]; cho-k1) was “Not Active” and the Ki [4] was 7.1 nM. The Ki [7] was 36 nM, the ED50 (Rattus norvegicus [25]) was “Weak activity” and the ED50 (Rattus norvegicus [26]) was “Weak activity”. The Ki (D(3) dopamine receptor [27]) was 542 nM, the Ki (D(2) dopamine receptor [28]) was 377 nM and the ED50 (Rattus norvegicus [16]) was 6.34 µmol/kg. The ED50 (Rattus norvegicus [29]) was “Active” and the ED50 (Rattus norvegicus [30]) was “inactive”.

For `CCCN(CCC)C1CCc2cc(F)c3[nH]ccc3c2C1` (stereo not given), the ED50 (Rattus norvegicus [31]) was 0.54 µmol/kg, the ED50 (Rattus norvegicus [12]) was 0.06 µmol/kg and the Ki ([3]; read-out: Ki) was 216 nM. For the same molecule, the Ki [4] was 1.4 nM, the ED50 (Rattus norvegicus [32]) was “inactive” and the Ki (D(2) dopamine receptor [28]) was 2.8 nM. It also gave an ED50 (Rattus norvegicus [14]) of 1.17 µmol/kg, an ED50 (Rattus norvegicus [16]) of 1.92 µmol/kg and an ED50 (Rattus norvegicus [33]) of 1 µmol/kg.
